The text below walks through data of patent publication US20140356383A1, “ADMINISTRATION OF AN ANTI-GCC ANTIBODY-DRUG CONJUGATE AND A DNA DAMAGING AGENT IN THE TREATMENT OF CANCER” (priority 2013, published 2014).

Data set [1] deals with PHTX-21c s.c. xenograft. In words: MLN0264 and 5-Fluorouracil in PHTX-21C s.c. xenografts (Study CPGC-11-EF01). The conditions noted are these: for dAUC: 4 days off, reference vehicle. The data set is classed as in vivo, CB-17 SCID mice. How it is done: (§1) Tumor volume was calculated using the formula: […]
Data set [2] has as its system PHTX-17c s.c. xenograft. In words: MLN0264 and CPT-11 in PHTX-17C s.c. xenografts (Study CPGC-11-EF06). The data set is classed as in vivo, CB-17 SCID mice. The conditions noted are these: PHTX-17c. As to the method: as §1
Data set [3] relates to PHTX-21c s.c. xenograft. As to the kind of experiment: MLN0264 and CPT-11 in PHTX-21C s.c. xenografts (Study CPGC-11-EF04). The conditions noted are these: PHTX-21c.
Data set [4] relates to PHTX-11c s.c. xenograft. In words: MLN0264 and CPT-11 in PHTX-11c s.c. xenografts (Study CPGC-12-EF01). The conditions noted are these: W1-W3.
Data set [5] relates to PHTX-09c s.c. xenograft. In words: 5F9 vcMMAE and CPT-11 in PHTX-09C s.c. xenografts (Study CPGC-11-EF07).
Data set [6] relates to 293 GCC#2 tumors. As to the kind of experiment: Efficacy study with auristatin conjugates in 293 GCC#2 tumors, q7d×4. The conditions noted are these: for CR/PR: complete response/partial response; for T/C: treatment/control; for TGD: tumor growth delay. The data set is classed as in vivo, SCID mice. Also on record: TGI / TGD: unit not given here. As to the method:
293 GCC#2 tumor-bearing SCID mice were treated with 5F9 conjugates with vc MMAE, vcMMAF or mcMMAF at three doses in comparison with 209 conjugates of these toxins or with free toxins or vehicle control. Doses were administered iv on a q7d×4 schedule. Tumors were harvested at days 3, 7, 10, 13 and 17. […] Table 18 provides a summary of the results (TGI=tumor growth inhibition, T/C=treatment/control, TGD=tumor growth delay, CR/PR=complete response/partial response; p value=measure to judge statistical significance, NS=not significant).

For data set [7], the system named is PHTX-9c primary human colon tumor xenograft. In words: Single agent antitumor activity in PHTX-9c (PHTX-09c) primary human colon tumor xenograft. As to the method: Female CB-17 SCID mice (eight weeks old) were inoculated subcutaneously (SC) into the flank with PHTX-9c tumor fragments (2 mm×2 mm). Tumor growth was monitored twice per week using vernier calipers and the mean tumor volume was calculated using the formula (0.5×[length×width^2]). When the mean tumor volume reached approximately 150 mm^3 (Study A) or 160 mm^3 (Study B), animals were randomized into treatment groups (n=10/group for Study A and n=9/group for Study B).
Doses were administered on Days 1, 8, and 15 for the QW schedule and Days 1, 4, 8, 11, 15, and 18 for the BIW schedule. […] The equivalent dose of linker+MMAE is 4% of the 5F9-vcMMAE dose. These calculations are based on a mean 3.9 MMAE molecules per antibody and a free antibody molecular weight of 150 kD. Actual antibody molecular weight will vary slightly due to degree of glycosylation.
Tumor volume and body weight were measured twice weekly and were continued beyond the treatment period to measure regrowth kinetics, as evidenced by tumor growth delay (TGD). Tumor volume measurements were continued until tumor volume reached 10% of the body weight in a single mouse within a treatment group, at which time the group was terminated. The percentage of tumor growth inhibition (TGI) ([mean tumor volume of the control group—mean tumor volume of a treated group]/mean tumor volume of the control group; a T/C ratio) was determined on Day 20. The T/C ratios across a treatment group were compared to the T/C ratios of the control group using a two-tailed Welch's t-test.
The differences in the tumor growth trends over time between pairs of treatment groups were assessed using linear mixed effects regression models. These models account for the fact that each animal was measured at multiple time points. A separate model was fit for each comparison, and the areas under the curve (AUC) for each treatment group were calculated using the predicted values from the model. The percent decrease in AUC (dAUC) relative to the reference group was then calculated.
The 5F9 vcMMAE immunoconjugate was tested for single agent anti-tumor activity in the four primary human tumor xengraft models at varying concentrations in order to explore whether GCC expression levels played a role in tumor sensitivity. […] Free-MMAE was also used as a negative control.

Data set [8] in a line: Free-MMAE levels in serum vs. tumor after 5F9 vcMMAE. The data set is classed as in vivo, mice. Also on record: AUCinf Serum / AUCinf Tumor: concentration or dose not given beside the values. As to conditions: for AUCinf Serum / AUCinf Tumor: free MMAE after 5F9 vcMMAE; for Tumor/Serum: ratio of MMAE AUCinf. As to the method:
Thus, the 5F9 vcMMAE immunoconjugate was confirmed to bind to GCC in the refractory PHTX-11c model. Free-MMAE levels in serum vs. tumor were also assessed to ensure the 5F9 vcMMAE immunoconjugate was being processed by the tumors (i.e., that the immunoconjugate was being internalized and that MMAE was being cleaved). A comparison of free-MMAE serum and tumor levels in the MMAE-refractory PHTX-11c model and the sensitive PHTX-09c and HEK293 GCC #2 models is shown Table 27 below. The presence of drug was confirmed within the tumors during dosing and post-dosing. Additionally, the free-MMAE levels in this tumor model were the same as the levels seen in tumor xenograft models that were sensitive to the immunoconjugate.

Data set [9] concerns PHTX-09c s.c. xenograft. As to the kind of experiment: 5F9 vcMMAE and cisplatin in PHTX-09c s.c. xenografts (Study CPGC-11-EF05).
Where [10] appears, read: CPT-11 10 mg/kg D1, D2 per week.
Where [11] appears, read: CPT-11 15 mg/kg D1, D2 per week.
The mark [12] stands for this setting: CPT-11 10 mg/kg 2 d on 5 off i.v.
Where [13] appears, read: CPT-11 15 mg/kg 2 d on 5 off i.v.
Where [14] appears, read: PHTX-09c, CPT-11 10 mg/kg D1, 2 ×3 weeks.
The mark [15] stands for this setting: Study A, 0.075 mg/kg IV QW × 3 doses.
[16] abbreviates: Study A, 0.15 mg/kg IV QW × 3 doses.
[17] abbreviates: Study B, 0.135 mg/kg IV QW × 3 doses.
Setting [18] is: Study B, 0.18 mg/kg IV QW × 3 doses.

Square brackets hold non-standard residues; d marks the D form. Peptide text beside a SMILES is read from it. * marks the point of attachment. Dolaproine = CO[C@@H]([C@@H]1CCCN1)[C@@H](C)C(=O)O; Hexanoyl(6-maleimido) = O=C1C=CC(=O)N1CCCCCC(=O)*; Dil = CC[C@H](C)[C@H](NC)[C@@H](CC(=O)O)OC; X1 = C[C@@H](N*)[C@@H](O)c1ccccc1; NMeV = CN[C@H](C(=O)O)C(C)C A value given as a limit tells only on which side of the number the result lay.

For the molecule `O=c1[nH]cc(F)c(=O)[nH]1` [5-FU, 5-Fluorouracil, reference compound], the “single agent anti-tumor activity” value in data set [1] (PHTX-21c, 15 mg/kg and 25 mg/kg, 3 day on/4 day off) is listed as “relatively low anti-tumor activity”. In addition, the values for the dAUC in data set [1] (group E: 5-Fu 15 mg/kg 3 days on) and in [1] (group F: 5-Fu 25 mg/kg 3 days on) were 44.1% and 52.6%, respectively.
Regarding `CCc1c2c(nc3ccc(OC(=O)N4CCC(N5CCCCC5)CC4)cc13)-c1cc3c(c(=O)n1C2)COC(=O)[C@]3(O)CC` [CPT-11, irinotecan], the “Days to 1000 mm^3” value in data set [2] (CPT-11 10 mg/kg QD 2on 5off) is greater than 17 days; in data set [2] (CPT-11 15 mg/kg 2 on 5off) it was greater than 17 days; in data set [2] (CPT-11 30 mg/kg QW), greater than 17 days; in data set [3] (setting [10]) it was greater than 15 days; in [3] (setting [11]), greater than 15 days; in data set [3] (CPT-11 30 mg/kg D1 QW) it was greater than 15 days. Moreover, the “Days to 1000 mm^3” value in [4] (setting [12]) is recorded as greater than 18 days; in data set [4] (setting [13]), greater than 18 days; in data set [4] (CPT-11 30 mg/kg (D1 QW) i.v.), greater than 18 days; in data set [5] (setting [14]) it was greater than 23 days. The T/C in data set [2] (CPT-11 10 mg/kg QD 2on 5off) is reported as 0.28; in data set [2] (CPT-11 15 mg/kg 2 on 5off), 0.22; in [2] (CPT-11 30 mg/kg QW), 0.4; in [3] (setting [10]) it was 0.22; in [3] (setting [11]) it was 0.16; in data set [3] (CPT-11 30 mg/kg D1 QW), 0.37. Moreover, the T/C in [4] (setting [12]) turned out to be 0.34; in [4] (setting [13]), 0.31; in data set [4] (CPT-11 30 mg/kg (D1 QW) i.v.) it was 0.39; in data set [5] (setting [14]) it was 0.4. For the same molecule, the TGI in data set [2] (CPT-11 10 mg/kg QD 2on 5off) is listed as 71.7%; in data set [2] (CPT-11 15 mg/kg 2 on 5off) it was 77.7%; in data set [2] (CPT-11 30 mg/kg QW), 60.5%; in [3] (setting [10]), 78.4%; in [3] (setting [11]), 84.4%; in data set [3] (CPT-11 30 mg/kg D1 QW), 62.8%. The TGI in [4] (setting [12]) stood at 65.9%; in data set [4] (setting [13]) it was 69.2%; in [4] (CPT-11 30 mg/kg (D1 QW) i.v.), 61.1%; in data set [5] (setting [14]), 60.3%. The “single agent anti-tumor activity” value in data set [3] (the two lower doses administered (10 and 15 mg/kg)) is given as “moderate to high single agent activity”. Moreover, in [5] (PHTX-09c (FIGS. 8B and 8C)), the single agent activity entry is on record as “moderate”.
In [6] (150 μg/kg iv q7d×4), `CC[C@H](C)[C@@H]([C@@H](CC(=O)N1CCC[C@H]1[C@H](OC)[C@@H](C)C(=O)N[C@@H](Cc1ccccc1)C(=O)O)OC)N(C)C(=O)[C@@H](NC(=O)[C@H](C(C)C)N(C)C(=O)CCCCCN1C(=O)C=CC1=O)C(C)C` [Free mcMMAF, reference compound] ({Hexanoyl(6-maleimido)}-[NMeV]V[Dil][Dolaproine]F-OH) showed a TGI of −3.4, a CR/PR of 0, a T/C of 1.03 and a TGD of −1.3.
In the case of `CC[C@H](C)[C@@H]([C@@H](CC(=O)N1CCC[C@H]1[C@H](OC)[C@@H](C)C(=O)N[C@H](C)[C@@H](O)c1ccccc1)OC)N(C)C(=O)[C@@H](NC(=O)[C@@H](NC)C(C)C)C(C)C` [MMAE, monomethyl auristatin E, reference compound] (H-[NMeV]V[Dil][Dolaproine]-X1), the TGI in data set [6] (300 μg/kg iv q7d×4) is on record as 35.6; in data set [7] (Study B, 0.18 mg/kg IV QW × 3 doses, Day 20, 0.18 mg/kg) it was 50.4 (p > 0.001) %. In data set [6] (300 μg/kg iv q7d×4), this molecule yielded a CR/PR of 0. For the same molecule, the T/C in data set [6] (300 μg/kg iv q7d×4) worked out at 0.64. Further, the TGD in [6] (300 μg/kg iv q7d×4) amounted to 2; in [7] (setting [15]), 1.0 days; in data set [7] (setting [16]), 2.0 days; in data set [7] (setting [17]), 0.2 days; in data set [7] (setting [18]), 8.6 days. Besides, the “BW change (mean maximum percent)” value is 8.3% in [7] (setting [15]), 10.8% in data set [7] (setting [16]), 9.3% in data set [7] (setting [17]) and −2.3% in data set [7] (setting [18]). Besides, the “greatest maximum body weight loss during treatment period” value in [7] (Study B, day 7, 0.18 mg/kg MMAE group and 0.938 mg/kg 5F9-vcMMAE group) came to 2.3%. In addition, the figures for the “AUCinf Serum” value in data set [8] (293 GCC #2 model), in data set [8] (PHTX-9C model) and in data set [8] (PHTX-11C model) were 56.3 ng·h/mL, 68.3 ng·h/mL and 44.1 ng·h/mL, respectively. The “AUCinf Tumor” value in data set [8] (293 GCC #2 model) came to 24953 ng·h/mL; in data set [8] (PHTX-9C model), 8670 ng·h/mL; in [8] (PHTX-11C model) it was 13400 ng·h/mL. For the same molecule, the results for the Tumor/Serum in data set [8] (293 GCC #2 model), in [8] (PHTX-9C model) and in data set [8] (PHTX-11C model) were 443, 127 and 304, respectively.
On to `N.N.[Cl][Pt][Cl]` [cisplatin], for which the “number of doses tolerated” value in data set [9] (4 mg/kg once weekly) turned out to be 2 doses; in data set [9] (6 mg/kg once weekly) it was 1 dose. The molecule also yielded a body weight loss in [9] (PHTX-09c, cisplatin alone) greater than 15%. The molecule further returned a dAUC in data set [9] (group C: cisplatin 4 mg/kg QW x2, reference vehicle) of 50.6%.
